The record followed here is ChEMBL document CHEMBL1139104, “Synthesis and evaluation of 4-O-alkylated 2-deoxy-2,3-didehydro-N-acetylneuraminic acid derivatives as inhibitors of human parainfluenza virus type-3 sialidase activity” (Bioorg Med Chem Lett, 2007).

This assay is described as follows: Inhibition of sialidase in Human parainfluenza virus 3 C243. More on the design: species or system Human respirovirus 3.

Take `CCCCCCCCCCO[C@H]1C=C(C(=O)O)O[C@@H]([C@H](O)[C@H](O)CO)[C@@H]1NC(C)=O`: the IC50 (in general, the concentration needed to halve the response being measured) came to 10 µM. In turn, `CC(=O)N[C@H]1[C@H]([C@H](O)[C@H](O)CO)OC(C(=O)O)=C[C@@H]1OCc1ccccc1` showed a 50% inhibitory concentration (IC50) of 10 µM. This counts as double-digit micromolar.

In the case of `CCO[C@H]1C=C(C(=O)O)O[C@@H]([C@H](O)[C@H](O)CO)[C@@H]1NC(C)=O`, it took 3 µM to reach half-maximal inhibition (IC50). This IC50 lies about 3.3-fold lower than the previous one. For the molecule `CCCCCCO[C@H]1C=C(C(=O)O)O[C@@H]([C@H](O)[C@H](O)CO)[C@@H]1NC(C)=O`, the IC50 worked out at 5 µM. As for `CC(=O)N[C@H]1[C@H]([C@H](O)[C@H](O)CO)OC(C(=O)O)=C[C@@H]1OCc1ccccc1-c1ccccc1`, inhibition was half-maximal at 30 µM (IC50). With `CC(=O)N[C@H]1[C@H]([C@H](O)[C@H](O)CO)OC(C(=O)O)=C[C@@H]1O` [NEU5AC2EN], the IC50 is 24 µM. Under `CC(=O)N[C@H]1[C@H]([C@H](O)[C@H](O)CO)OC(C(=O)O)=C[C@@H]1NC(=N)N` [ZANAMIVIR] stands 25 µM.
